Source: patent US10385056B2, “4-substituted pyrrolo[2,3-d]pyrimidine compound and use thereof” (JIANGSU CAREFREE PHARMACEUTICAL CO., LTD, priority 2014, dated 2019)

Key:
phosphorylated JAK1 = assay: CTLL-2 cells, IL-2 stimulated, Western blot of phosphorylation; format: cell-based; details: Mus musculus, starved 6 h with compound, IL-2 150 U/mL 10 min, phosphorylated JAK1 by Western blot, read-out: IC50 g (nM) JAK1
Description: (§1) Incubating for 10 min and collecting cells. Adding cell lysis buffer for cell lysis. Collecting protein to perform WEST-Blot detection, detecting phosphorylated JAK1, the phosphorylation of JAK2 and the phosphorylated STAT5, and obtaining the IC50 value.

phosphorylation of JAK2 = assay: as above; format: cell-based; details: Mus musculus, starved 6 h with compound, IL-2 150 U/mL 10 min, phosphorylation of JAK2 by Western blot, read-out: IC50 g (nM) JAK2
Description: as §1

phosphorylated STAT5 = assay: as above; format: cell-based; details: Mus musculus, starved 6 h with compound, IL-2 150 U/mL 10 min, phosphorylated STAT5 by Western blot, read-out: IC50 g (nM) STAT5
Description: as §1

JAK1 = JAK1 (Homo sapiens, UniProt P23458); assay: Caliper Mobility Shift Assay, kinase inhibition; format: biochemical; details: ATP by Km value
JAK3 = target: T1, JAK3 (Homo sapiens, UniProt P52333); assay: Caliper Mobility Shift Assay, kinase inhibition; format: biochemical; details: ATP by Km value
T1 sequence (P52333 1-1124): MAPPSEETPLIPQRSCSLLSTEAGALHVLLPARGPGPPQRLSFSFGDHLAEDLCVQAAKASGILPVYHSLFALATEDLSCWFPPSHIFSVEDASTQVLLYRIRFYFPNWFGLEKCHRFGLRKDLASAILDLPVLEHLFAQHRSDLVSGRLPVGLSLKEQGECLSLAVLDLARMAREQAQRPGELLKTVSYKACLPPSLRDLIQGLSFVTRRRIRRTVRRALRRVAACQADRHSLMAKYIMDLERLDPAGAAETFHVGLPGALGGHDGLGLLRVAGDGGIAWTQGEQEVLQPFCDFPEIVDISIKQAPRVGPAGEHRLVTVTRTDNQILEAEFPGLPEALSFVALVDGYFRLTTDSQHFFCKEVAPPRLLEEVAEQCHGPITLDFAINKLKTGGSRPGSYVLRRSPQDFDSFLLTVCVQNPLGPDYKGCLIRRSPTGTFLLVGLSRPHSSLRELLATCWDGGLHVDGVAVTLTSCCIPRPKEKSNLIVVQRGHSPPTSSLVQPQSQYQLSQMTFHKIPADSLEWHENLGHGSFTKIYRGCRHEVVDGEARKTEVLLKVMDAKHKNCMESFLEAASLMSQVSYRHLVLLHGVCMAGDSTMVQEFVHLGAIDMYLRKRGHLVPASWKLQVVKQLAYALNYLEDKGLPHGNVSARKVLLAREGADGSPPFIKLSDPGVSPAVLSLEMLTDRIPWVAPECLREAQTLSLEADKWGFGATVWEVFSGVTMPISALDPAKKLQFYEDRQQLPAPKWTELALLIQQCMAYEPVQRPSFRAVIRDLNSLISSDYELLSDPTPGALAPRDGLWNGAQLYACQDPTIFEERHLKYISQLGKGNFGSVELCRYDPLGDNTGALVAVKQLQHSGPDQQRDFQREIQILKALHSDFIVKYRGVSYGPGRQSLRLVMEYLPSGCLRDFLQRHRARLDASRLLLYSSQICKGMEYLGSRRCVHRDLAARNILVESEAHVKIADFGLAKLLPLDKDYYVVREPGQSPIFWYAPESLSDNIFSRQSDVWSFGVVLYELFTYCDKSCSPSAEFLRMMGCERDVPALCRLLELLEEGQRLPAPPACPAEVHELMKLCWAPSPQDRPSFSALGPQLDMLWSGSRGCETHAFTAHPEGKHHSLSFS

JAK2 = JAK2 (Homo sapiens, UniProt O60674); assay: Caliper Mobility Shift Assay, kinase inhibition; format: biochemical; details: ATP by Km value
Jurkat cells = assay: Inhibition of cell proliferation of human lymphocytoma (CCK-8); format: cell-based; details: 48 h, CCK-8, 450 nm absorption
Description: Spreading the Jurkat cells out for in-vitro cultivation on a 96-well plate with 1500 cells in each well, making the highest concentration of the compound be 50 μM in the cultivation system, and diluting the drug concentration according to 10-time step dilution.

[1] = test system: rat with rheumatoid arthritis; assay: Collagen-induced rheumatoid arthritis model, arthritis score; format: in vivo; details: DBA/1J rat, bovine Type II collagen/CFA model, intragastric administration, scored 2 weeks after administration, 1-4 scoring method
Description: For the function of the compound inhibiting rheumatoid arthritis, selecting DBA/1J rat, carrying out subcutaneous injection after complete emulsion of 50 ug of bovine Type II collagen and isometric complete Freund's adjuvant (CFA). Strengthening immunization once 21 days after adequate emulsion of 50 ug of same antigen and incomplete Freund's adjuvant (IFA). Starting observation and recording from the 45th day. Using 1-4 scoring method: 1 score, normal; 2 scores, swelling of one joint; 3 scores, swelling of more than one joint but not all joints; 4 scores, severe swelling or stiffness of the whole claw. Adding scores of all claws to obtain the total score of arthritis in rat. Showing successful model establishment when the total joint score of the rat is more than 1. After successfully establishing the model of rat with rheumatoid arthritis, using the compound of the invention to feed the rat by intragastric administration and scoring arthritis of the rat 2 weeks after administration.

Chain of JAK1 (P23458 whole entry, species assumed): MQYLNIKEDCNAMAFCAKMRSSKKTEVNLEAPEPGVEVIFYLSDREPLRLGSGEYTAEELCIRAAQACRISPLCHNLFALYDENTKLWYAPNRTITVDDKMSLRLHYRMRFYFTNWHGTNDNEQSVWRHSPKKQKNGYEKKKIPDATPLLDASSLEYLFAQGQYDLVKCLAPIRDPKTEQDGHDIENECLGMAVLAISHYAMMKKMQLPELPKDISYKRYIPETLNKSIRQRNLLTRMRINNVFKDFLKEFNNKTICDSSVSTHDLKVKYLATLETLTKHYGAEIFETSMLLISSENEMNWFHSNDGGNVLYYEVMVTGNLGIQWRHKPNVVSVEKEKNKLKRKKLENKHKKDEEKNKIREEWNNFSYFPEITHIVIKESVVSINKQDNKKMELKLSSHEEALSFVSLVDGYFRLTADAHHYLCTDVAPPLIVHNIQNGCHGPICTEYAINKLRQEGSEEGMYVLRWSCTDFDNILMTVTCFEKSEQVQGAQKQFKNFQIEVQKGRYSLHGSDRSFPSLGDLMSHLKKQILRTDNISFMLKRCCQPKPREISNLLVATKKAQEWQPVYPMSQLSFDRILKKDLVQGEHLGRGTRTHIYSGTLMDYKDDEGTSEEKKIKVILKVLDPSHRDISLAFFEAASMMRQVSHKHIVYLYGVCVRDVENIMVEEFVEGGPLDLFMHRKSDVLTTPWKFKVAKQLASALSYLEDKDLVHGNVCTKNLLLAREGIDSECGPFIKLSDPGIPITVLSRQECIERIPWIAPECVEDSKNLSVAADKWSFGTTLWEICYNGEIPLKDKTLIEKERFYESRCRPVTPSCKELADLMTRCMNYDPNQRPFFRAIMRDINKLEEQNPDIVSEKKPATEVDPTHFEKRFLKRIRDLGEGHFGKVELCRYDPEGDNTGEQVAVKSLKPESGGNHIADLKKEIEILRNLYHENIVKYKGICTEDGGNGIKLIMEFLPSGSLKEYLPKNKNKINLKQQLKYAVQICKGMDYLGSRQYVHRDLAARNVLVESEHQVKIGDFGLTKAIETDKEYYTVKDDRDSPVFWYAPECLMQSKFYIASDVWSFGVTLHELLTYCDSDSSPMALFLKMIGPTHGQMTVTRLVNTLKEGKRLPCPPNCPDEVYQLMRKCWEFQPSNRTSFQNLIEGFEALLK
Chain of JAK2 (O60674 whole entry, species assumed): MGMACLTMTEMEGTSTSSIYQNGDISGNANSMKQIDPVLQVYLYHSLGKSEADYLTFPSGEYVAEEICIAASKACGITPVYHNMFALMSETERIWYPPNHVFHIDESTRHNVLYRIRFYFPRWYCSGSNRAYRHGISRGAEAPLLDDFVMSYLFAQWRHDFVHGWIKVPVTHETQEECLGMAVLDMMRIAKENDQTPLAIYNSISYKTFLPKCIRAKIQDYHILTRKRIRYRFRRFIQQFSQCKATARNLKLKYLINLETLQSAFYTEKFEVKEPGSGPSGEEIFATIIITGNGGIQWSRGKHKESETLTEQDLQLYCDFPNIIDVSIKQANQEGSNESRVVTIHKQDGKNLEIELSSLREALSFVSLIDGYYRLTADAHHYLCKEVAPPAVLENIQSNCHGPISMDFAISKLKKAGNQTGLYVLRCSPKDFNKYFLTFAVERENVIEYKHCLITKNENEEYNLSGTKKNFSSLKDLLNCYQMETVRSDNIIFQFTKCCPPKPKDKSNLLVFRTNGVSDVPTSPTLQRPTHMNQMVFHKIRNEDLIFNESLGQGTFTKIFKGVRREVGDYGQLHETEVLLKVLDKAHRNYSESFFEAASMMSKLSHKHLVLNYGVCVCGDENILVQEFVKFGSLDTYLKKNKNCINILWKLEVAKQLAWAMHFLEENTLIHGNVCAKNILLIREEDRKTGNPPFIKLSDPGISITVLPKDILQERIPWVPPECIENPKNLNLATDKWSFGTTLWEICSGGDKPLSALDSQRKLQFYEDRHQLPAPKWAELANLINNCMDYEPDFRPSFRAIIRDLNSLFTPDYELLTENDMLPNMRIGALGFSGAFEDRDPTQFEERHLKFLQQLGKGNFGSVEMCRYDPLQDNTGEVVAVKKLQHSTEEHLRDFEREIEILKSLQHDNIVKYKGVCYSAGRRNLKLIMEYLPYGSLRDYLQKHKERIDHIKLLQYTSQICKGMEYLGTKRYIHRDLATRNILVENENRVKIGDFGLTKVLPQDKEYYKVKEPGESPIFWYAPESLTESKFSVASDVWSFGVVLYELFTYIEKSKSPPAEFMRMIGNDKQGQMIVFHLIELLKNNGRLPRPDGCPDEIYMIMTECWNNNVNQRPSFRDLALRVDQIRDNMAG

## CCCCS(=O)(=O)N1CC(CC#N)(n2cc(-c3ncnc4[nH]ccc34)c3ccccc32)C1 [Example 6, 2-(3-(3-(7H-pyrrole[2,3-d]pyrimidine-4-yl)-1H-indole-1-yl)-1-(butylsulfonyl)azetidine-3-yl)acetonitrile]
Phosphorylated JAK1
  IC50: 22 nM
Phosphorylation of JAK2
  IC50: 8 nM
Phosphorylated STAT5
  IC50: 322 nM
JAK1
  IC50: 22 nM
JAK3
  IC50: 200 nM
JAK2
  IC50: 7.1 nM
Jurkat cells
  IC50: 458 nM
[1]
  Score of arthritis: 2.3

## CN(C)S(=O)(=O)N1CC(CC#N)(n2cc(-c3ncnc4[nH]ccc34)c3ccccc32)C1 [Example 7]
Phosphorylated JAK1
  IC50: 45 nM
Phosphorylation of JAK2
  IC50: 9.6 nM
Phosphorylated STAT5
  IC50: 214 nM
JAK1
  IC50: 15 nM
JAK3
  IC50: 116 nM
JAK2
  IC50: 1.5 nM
Jurkat cells
  IC50: 123 nM
[1]
  Score of arthritis: 2.5

## CCS(=O)(=O)N1CC(CC#N)(n2cc(-c3ncnc4[nH]ccc34)c3ccc(F)cc32)C1 [Example 20, 2-(1-(ethylsulfonyl)-3-(6-fluoro-3-(7H-pyrrole[2,3-d]pyrimidine-4-yl)-1H-indole-1-yl)azetidine-3-yl)acetonitrile]
Phosphorylated JAK1
  IC50: 18.5 nM
Phosphorylation of JAK2
  IC50: 15.2 nM
Phosphorylated STAT5
  IC50: 309 nM
JAK1
  IC50: 0.5 nM
JAK3
  IC50: 28 nM
JAK2
  IC50: 0.61 nM
Jurkat cells
  IC50: 225 nM
[1]
  Score of arthritis: 1.6

## CCS(=O)(=O)N1CC(CC#N)(n2cc(-c3ncnc4[nH]ccc34)c3cc(OC)ccc32)C1 [Example 64, 2-(1-(ethylsulfonyl)-3-(5-methoxyl-3-(7H-pyrrole[2,3-d]pyrimidine-4-yl)-1H-indole-1-yl)azetidine-3-yl)acetonitrile]
Phosphorylated JAK1
  IC50: 42.9 nM
Phosphorylation of JAK2
  IC50: 28.7 nM
Phosphorylated STAT5
  IC50: 201 nM
JAK1
  IC50: 23 nM
JAK3
  IC50: 262 nM
JAK2
  IC50: 2.9 nM
Jurkat cells
  IC50: 136 nM
[1]
  Score of arthritis: 2.3
